Data as given in US8772199B2, “Herbicidal compositions for tolerant or resistant maize crops” (Bayer Intellectual Property GmbH, priority 1998, dated 2014).
Structures can show the parent of a compound that is named as a salt.

How the values were obtained:
Assay in all cases: Field trial with maize, herbicidal action
Assay type in all cases: in vivo
Commelina benghalensis = conditions: application 3-leaf stage, scoring 42 days after application
Method: (§1) Transgenic maize plants with a resistance to one or more herbicides (A) together with typical weed plants were grown in the open on 2×5 m plots under natural field conditions; alternatively, weed infestation occurred naturally when the maize plants were grown.
(§2) 2, 4, 6 and 8 weeks after the application, the herbicidal activity of the active substances or active substance mixtures was scored visually with reference to the treated plots in comparison to untreated control plots. The damage to, and the development of, all aerial parts of the plants was recorded. Scoring was done on the basis of a percentage sale (100% action=all plants destroyed; 50% action=50% of the plants and green parts of the plants destroyed; 0% action=no recognizable effect=like control plot. The mean of the score values of in each case 4 plots was calculated.

Avena fatua = conditions: application 2- to 4-leaf stage, scoring 28 days after application
Method: as §1, §2

Sorghum halepense = conditions: application 4-leaf stage, scoring 28 days after application
Method: as §1, §2

Convolvulus arvensis = conditions: application 3- to 4-leaf stage, scoring 28 days after application
Method: as §1, §2

Brachiaria plantaginea = conditions: application 2-leaf stage, scoring 28 days after application
Method: as §1, §2

Sinapis arvensis = conditions: application 4- to 5-leaf stage, scoring 28 days after application
Method: as §1, §2

Sorghum bicolor = conditions: application 4-leaf stage, scoring 28 days after post-emergence application
Method: as §1, §2

Portulaca oleracea = tested on: Portulaca oleracea
Method: as §1
(§3) […] The damage to, and the development of, all aerial parts of the plants was recorded. Scoring was done on the basis of a percentage sale (100% action=all plants destroyed; 50% action=50% of the plants and green parts of the plants destroyed; 0% action=no recognizable effect=like control plot. The mean of the score values of in each case 4 plots was calculated.

Galium aparine = conditions: application 3- to 4-leaf stage, scoring 24 days after application
Method: as §1, §3

Cassia obtusifolia = conditions: 400 g of a.s./ha; application 3-leaf stage; scoring 21 days after application
Method: as §1, §3

AMARE = conditions: application 2-4-leaf stage, scoring 3 weeks after application
Method: as §1, §3

Echinochloa crus-galli = tested on: Echinochloa crus-galli
Method: as §1, §3

Fagopyrum esculentum = conditions: for Herbicidal action (%) against Fagopyrum esculentum: application 3- to 4-leaf stage, scoring 24 days after application; for Herbicidal action (%) against Fagopyron esculentum: application 2- to 4-leaf stage, scoring 26 days after application
Method: as §1, §3

Panicum dichotomiflorum = conditions: application 5-6-leaf stage, scoring 11 days after application
Method: as §1, §3

SETVI = conditions: application 2-4-leaf stage, scoring 3 weeks after application
Method: as §1, §3

Digitaria sanguinalis = conditions: application 5-6-leaf stage, scoring 11 days after application
Method: as §1, §3

Euphorbia heterophylla = conditions: for Herbicidal action (%) against Euphorbia heterophylla: application 6-leaf stage, scoring 44 days after application; for Herbicidal action (%) against EPHHL: application 4-leaf stage, scoring 6 weeks after application
Method: as §1, §3

Lolium multiflorum = conditions: application 2- to 4-leaf stage, scoring 26 days after application
Method: as §1, §3

AGRRE = conditions: application 2-4-leaf stage, scoring 3 weeks after application
Method: as §1, §3

CP(=O)(O)CCC(N)C(=O)O (stereo not drawn) [(A1.2), glufosinate-monoammonium salt]
Herbicidal action (%) against Commelina benghalensis (Commelina benghalensis; 100 g of a.s./ha): 43%
Herbicidal action (%) against Commelina benghalensis (Commelina benghalensis; 200 g of a.s./ha): 60.0%
Herbicidal action (%) against Commelina benghalensis (Commelina benghalensis; 300 g of a.s./ha): 63%
Herbicidal action (%) against Commelina benghalensis (Commelina benghalensis; 600 g of a.s./ha): 82%
Herbicidal action (%) against Avena fatua (Avena fatua; 300 g of a.s./ha): 48%
Herbicidal action (%) against Avena fatua (Avena fatua; 450 g of a.s./ha): 50%
Herbicidal action (%) against Sorghum halepense (Sorghum halepense; 300 g of a.s./ha): 15%
Herbicidal action (%) against Sorghum halepense (Sorghum halepense; 500 g of a.s./ha): 53%
Herbicidal action (%) against Convolvulus arvensis (Convolvulus arvensis; 200 g of a.s./ha): 0%
Herbicidal action (%) against Convolvulus arvensis (Convolvulus arvensis; 400 g of a.s./ha): 20%
Herbicidal action (%) against Brachiaria plantaginea (Brachiaria plantaginea; 150 g of a.s./ha): 5%
Herbicidal action (%) against Brachiaria plantaginea (Brachiaria plantaginea; 300 g of a.s./ha): 45%
Herbicidal action (%) against Brachiaria plantaginea (Brachiaria plantaginea; 600 g of a.s./ha): 70%
Herbicidal action (%) against Sinapis arvensis (Sinapis arvensis; 230 g of a.s./ha): 45%
Herbicidal action (%) against Sinapis arvensis (Sinapis arvensis; 350 g of a.s./ha): 75%
Herbicidal action (%) against Sorghum bicolor (Sorghum bicolor; 125 g of a.s./ha): 30%
Herbicidal action (%) against Sorghum bicolor (Sorghum bicolor; 250 g of a.s./ha): 50%
Herbicidal action (%) against Sorghum bicolor (Sorghum bicolor; 500 g of a.s./ha): 85%
Herbicidal action (%) against Portulaca oleracea (Portulaca oleracea; 250 g of a.s./ha, application 6-leaf stage, scoring 26 days after application): 35%
Herbicidal action (%) against Portulaca oleracea (Portulaca oleracea; 300 g of a.s./ha, application 2- to 4-leaf stage, scoring 28 days after application): 43%
Herbicidal action (%) against Portulaca oleracea (Portulaca oleracea; 450 g of a.s./ha, application 2- to 4-leaf stage, scoring 28 days after application): 50%
Herbicidal action (%) against Portulaca oleracea (Portulaca oleracea; 500 g of a.s./ha, application 6-leaf stage, scoring 26 days after application): 60%
Herbicidal action (%) against Galium aparine (Galium aparine; 125 g of a.s./ha): 30%
Herbicidal action (%) against Galium aparine (Galium aparine; 250 g of a.s./ha): 45%
Herbicidal action (%) against Galium aparine (Galium aparine; 500 g of a.s./ha): 65%
Herbicidal action (%) against Cassia obtusifolia (Cassia obtusifolia): 60%
Herbicidal action (%) against AMARE (AMARE; 200 g of a.s./ha): 65%
Herbicidal action (%) against AMARE (AMARE; 300 g of a.s./ha): 84%
Herbicidal action (%) against AMARE (AMARE; 400 g of a.s./ha): 82%
Herbicidal action (%) against AMARE (AMARE; 600 g of a.s./ha): 87%
Herbicidal action (%) against AMARE (AMARE; 1000 g of a.s./ha): 85%
Herbicidal action (%) against Echinochloa crus-galli (Echinochloa crus-galli; 125 g of a.s./ha, application 3- to 4-leaf stage, scoring 42 days after application): 45%
Herbicidal action (%) against Echinochloa crus-galli (Echinochloa crus-galli; 125 g of a.s./ha, application 3-leaf stage, scoring 28 days after application): 25%
Herbicidal action (%) against Echinochloa crus-galli (Echinochloa crus-galli; 200 g of a.s./ha, application 3-leaf stage, scoring 21 days after application): 35%
Herbicidal action (%) against Echinochloa crus-galli (Echinochloa crus-galli; 250 g of a.s./ha, application 3- to 4-leaf stage, scoring 42 days after application): 65%
Herbicidal action (%) against Echinochloa crus-galli (Echinochloa crus-galli; 250 g of a.s./ha, application 3-leaf stage, scoring 28 days after application): 45%
Herbicidal action (%) against Echinochloa crus-galli (Echinochloa crus-galli; 400 g of a.s./ha, application 3-leaf stage, scoring 21 days after application): 68%
Herbicidal action (%) against Echinochloa crus-galli (Echinochloa crus-galli; 500 g of a.s./ha, application 3- to 4-leaf stage, scoring 42 days after application): 78%
Herbicidal action (%) against Echinochloa crus-galli (Echinochloa crus-galli; 500 g of a.s./ha, application 3-leaf stage, scoring 28 days after application): 74%
Herbicidal action (%) against Fagopyrum esculentum (Fagopyrum esculentum; 125 g of a.s./ha): 10%
Herbicidal action (%) against Fagopyron esculentum (Fagopyrum esculentum; 200 g of a.s./ha): 10%
Herbicidal action (%) against Fagopyrum esculentum (Fagopyrum esculentum; 250 g of a.s./ha): 20%
Herbicidal action (%) against Fagopyron esculentum (Fagopyrum esculentum; 330 g of a.s./ha): 20%
Herbicidal action (%) against Fagopyron esculentum (Fagopyrum esculentum; 500 g of a.s./ha): 55%
Herbicidal action (%) against Fagopyrum esculentum (Fagopyrum esculentum; 500 g of a.s./ha): 55%
Herbicidal action (%) against Panicum dichotomiflorum (Panicum dichotomiflorum; 200 g of a.s./ha): 8%
Herbicidal action (%) against Panicum dichotomiflorum (Panicum dichotomiflorum; 400 g of a.s./ha): 50%
Herbicidal action (%) against Panicum dichotomiflorum (Panicum dichotomiflorum; 600 g of a.s./ha): 92%
Herbicidal action (%) against SETVI (SETVI; 200 g of a.s./ha): 72%
Herbicidal action (%) against SETVI (SETVI; 300 g of a.s./ha): 72%
Herbicidal action (%) against SETVI (SETVI; 400 g of a.s./ha): 69%
Herbicidal action (%) against SETVI (SETVI; 600 g of a.s./ha): 69%
Herbicidal action (%) against SETVI (SETVI; 1000 g of a.s./ha): 74%
Herbicidal action (%) against Digitaria sanguinalis (Digitaria sanguinalis; 200 g of a.s./ha): 0%
Herbicidal action (%) against Digitaria sanguinalis (Digitaria sanguinalis; 400 g of a.s./ha): 15%
Herbicidal action (%) against Digitaria sanguinalis (Digitaria sanguinalis; 600 g of a.s./ha): 30%
Herbicidal action (%) against Euphorbia heterophylla (Euphorbia heterophylla; 100 g of a.s./ha): 37%
Herbicidal action (%) against Euphorbia heterophylla (Euphorbia heterophylla; 200 g of a.s./ha): 50%
Herbicidal action (%) against EPHHL (Euphorbia heterophylla; 300 g of a.s./ha): 45%
Herbicidal action (%) against Euphorbia heterophylla (Euphorbia heterophylla; 400 g of a.s./ha): 60%
Herbicidal action (%) against EPHHL (Euphorbia heterophylla; 600 g of a.s./ha): 55%
Herbicidal action (%) against Lolium multiflorum (Lolium multiflorum; 200 g of a.s./ha): 0%
Herbicidal action (%) against Lolium multiflorum (Lolium multiflorum; 330 g of a.s./ha): 15%
Herbicidal action (%) against Lolium multiflorum (Lolium multiflorum; 500 g of a.s./ha): 78%
Herbicidal action (%) against AGRRE (AGRRE; 200 g of a.s./ha): 0%
Herbicidal action (%) against AGRRE (AGRRE; 300 g of a.s./ha): 0%
Herbicidal action (%) against AGRRE (AGRRE; 400 g of a.s./ha): 11%
Herbicidal action (%) against AGRRE (AGRRE; 600 g of a.s./ha): 15%
Herbicidal action (%) against AGRRE (AGRRE; 1000 g of a.s./ha): 74%
